Publication doi:10.1101/2021.10.07.463234v2 (biorxiv, 2021)
Where a name gives a salt, the structure may show the parent alone.

Target: SARS-CoV-2 Mac1 (Severe acute respiratory syndrome coronavirus 2, UniProt P0DTD1)
Assay: biochemical
Conditions: 100 µM; inhibitor

Row | Compound | %inhibition
1 | C=C1[C@H](CO)[C@@H](O)C[C@@H]1n1cnc2c(=O)[nH]c(N)nc21 [Entecavir] | 0%
2 | CNC[C@H](O)c1ccc(O)c(O)c1 [Epinephrine HCl] | 5.697%
3 | C#Cc1cccc(Nc2ncnc3cc(OCCOC)c(OCCOC)cc23)c1 [Erlotinib HCl (OSI-744)] | 12.32%
4 | C#Cc1cccc(Nc2ncnc3cc(OCCOC)c(OCCOC)cc23)c1 [Erlotinib] | 10.85%
5 | CC[C@H]1OC(=O)[C@H](C)[C@@H](O[C@H]2C[C@@](C)(OC)[C@@H](O)[C@H](C)O2)[C@H](C)[C@@H](O[C@@H]2O[C@H](C)C[C@H](N(C)C)[C@H]2O)[C@](C)(O)C[C@@H](C)C(=O)[C@H](C)[C@@H](O)[C@]1(C)O [Erythromycin thiocyanate] | 1.029%
6 | CC[C@H]1OC(=O)[C@H](C)[C@@H](O[C@H]2C[C@@](C)(OC)[C@@H](O)[C@H](C)O2)[C@H](C)[C@@H](O[C@@H]2O[C@H](C)C[C@H](N(C)C)[C@H]2O)[C@](C)(O)C[C@@H](C)C(=O)[C@H](C)[C@@H](O)[C@]1(C)O [Erythromycin] | 0%
7 | COc1ccc2[nH]c([S@@+]([O-])Cc3ncc(C)c(OC)c3C)nc2c1 [Esomeprazole sodium] | 0%

Same assay, conditions: read-out: %inhibition

Row | Compound | inhibition at 100 µM
8 | Nc1ccccc1NC(=O)c1ccc(CNC(=O)OCc2cccnc2)cc1 [Entinostat (MS-275)] | 33.3%
9 | c1cn2cc(-c3ccc4cn[nH]c4c3)nc(Nc3ccc(N4CCOCC4)cc3)c2n1 [Entospletinib (GS-9973)] | 29.5%
10 | CN1CCN(c2ccc(C(=O)Nc3n[nH]c4ccc(Cc5cc(F)cc(F)c5)cc34)c(NC3CCOCC3)c2)CC1 [Entrectinib (RXDX-101)] | 8.59%
11 | Cn1cc(C2=C(c3cn(C4CCN(Cc5ccccn5)CC4)c4ccccc34)C(=O)NC2=O)c2ccccc21 [Enzastaurin (LY317615)] | 34.6%
12 | NS(=O)(=O)NCCNc1nonc1/C(=N/O)Nc1ccc(F)c(Br)c1 [Epacadostat (INCB024360)] | 14.8%
13 | CC(/C=C1\SC(=S)N(CC(=O)O)C1=O)=C\c1ccccc1 [Epalrestat] | 0%
14 | CCc1ccc(C(=O)C(C)CN2CCCCC2)cc1 (stereo not shown) [Eperisone hydrochloride] | 10.4%
15 | NC1=NCC2c3ccccc3Cc3ccccc3N12 (stereo not shown) [Epinastine HCl] | 4.62%
16 | CNC[C@H](O)c1ccc(O)c(O)c1 [Epinephrine bitartrate] | 10.7%
17 | COc1cccc2c1C(=O)c1c(O)c3c(c(O)c1C2=O)C[C@@](O)(C(=O)CO)C[C@@H]3O[C@H]1C[C@H](N)[C@@H](O)[C@H](C)O1 [Epirubicin HCl] | 51.4%
18 | COC(=O)[C@@H]1CC2=CC(=O)CC[C@]2(C)[C@@]23O[C@@H]2C[C@@]2(C)[C@@H](CC[C@@]24CCC(=O)O4)[C@H]13 [Eplerenone] | 3.58%
19 | CCOC(CN1CCN(CC(C)C(=O)c2ccccc2)CC1)c1ccccc1 (stereo not shown) [Eprazinone 2HCl] | 0%
20 | O=S(=O)(O)CCCS(=O)(=O)O [Eprodisate disodium] | 0%
21 | CCCCc1ncc(/C=C(\Cc2cccs2)C(=O)O)n1Cc1ccc(C(=O)O)cc1 [Eprosartan Mesylate] | 26.7%
22 | O=C(O)CSCC(=O)NC1CCSC1=O (stereo not shown) [Erdosteine] | 12.3%
23 | C[C@@H](O)[C@H]1C(=O)N2C(C(=O)O)=C(S[C@@H]3CN[C@H](C(=O)Nc4cccc(C(=O)O)c4)C3)[C@H](C)[C@H]12 [Ertapenem sodium] | 2.44%
24 | CCOc1ccc(Cc2cc([C@]34OC[C@](CO)(O3)[C@@H](O)[C@H](O)[C@H]4O)ccc2Cl)cc1 [Ertugliflozin] | 26.2%
25 | CCOC(=O)CCC(=O)O[C@H]1[C@H](O[C@@H]2[C@@H](C)[C@H](O[C@H]3C[C@@](C)(OC)[C@@H](O)[C@H](C)O3)[C@@H](C)C(=O)O[C@H](CC)[C@@](C)(O)[C@H](O)[C@@H](C)C(=O)[C@H](C)C[C@@]2(C)O)O[C@H](C)C[C@@H]1N(C)C [Erythromycin Ethylsuccinate] | 0%
26 | C/C=C(\C)C(=O)O[C@H]1[C@H](OC(C)=O)[C@@]2(CO)C(CC1(C)C)C1=CCC3[C@@]4(C)CCC(O[C@@H]5O[C@H](C(=O)O)[C@@H](O[C@@H]6O[C@H](CO)[C@@H](O)[C@H](O)[C@H]6O)[C@H](O)[C@H]5O[C@@H]5O[C@H](CO)[C@@H](O)[C@H](O)[C@H]5O)[C@](C)(CO)C4CC[C@@]3(C)[C@]1(C)C[C@H]2O (stereo partly shown) [Escin] | 6.9%
27 | CN(C)CCC[C@@]1(c2ccc(F)cc2)OCc2cc(C#N)ccc21 [Escitalopram Oxalate] | 0%
28 | CC(=O)O[C@H]1Cc2ccccc2N(C(N)=O)c2ccccc21 [Eslicarbazepine Acetate] | 0%

Row | Compound | inhibition at 100 µM
29 | COC(=O)CCc1ccc(OCC(O)CNC(C)C)cc1 (stereo not shown) [Esmolol HCl] | 12%
30 | C[C@]12CC[C@@H]3c4ccc(OC(=O)c5ccccc5)cc4CC[C@H]3[C@@H]1CC[C@@H]2O [Estradiol Benzoate] | 20.5%
31 | C[C@]12CC[C@@H]3c4ccc(O)cc4CC[C@H]3[C@@H]1CC[C@@H]2OC(=O)CCC1CCCC1 [Estradiol Cypionate] | 0%
32 | CCCCC(=O)O[C@H]1CC[C@H]2[C@@H]3CCc4cc(O)ccc4[C@H]3CC[C@]12C [Estradiol valerate] | 3.33%
33 | C[C@]12CC[C@@H]3c4ccc(O)cc4CC[C@H]3[C@@H]1CC[C@@H]2O [Estradiol] | 0%
34 | C[C@]12CC[C@@H]3c4ccc(O)cc4CC[C@H]3[C@@H]1C[C@@H](O)[C@@H]2O [Estriol] | 0%
35 | C[C@]12CC[C@@H]3c4ccc(O)cc4CC[C@H]3[C@@H]1CCC2=O [Estrone] | 0%
36 | C[C@]12CC[C@@H]3c4ccc(OS(=O)(=O)O)cc4CC[C@H]3[C@@H]1CCC2=O [Estropipate] | 8.24%
37 | CCOc1ccc2nc3cc(N)ccc3c(N)c2c1 [Ethacridine lactate monohydrate] | 25.8%
38 | CC[C@@H](CO)NCCN[C@@H](CC)CO [Ethambutol 2HCl] | 7.53%
39 | O=S(=O)(O)c1cc(O)ccc1O [Ethamsylate] | 0%
40 | C#C[C@]1(O)CC[C@H]2[C@@H]3CCc4cc(O)ccc4[C@H]3CC[C@@]21C [Ethinyl Estradiol] | 0%
41 | CCc1cc(C(N)=S)ccn1 [Ethionamide] | 19.8%
42 | CCC1(C)CC(=O)NC1=O (stereo not shown) [Ethosuximide] | 0%
43 | CCOC(=O)c1ccc(O)cc1 [Ethylparaben] | 2.11%
44 | C#C[C@]1(OC(C)=O)CC[C@H]2[C@@H]3CCC4=C[C@@H](OC(C)=O)CC[C@@H]4[C@H]3CC[C@@]21C [Ethynodiol diacetate] | 0%
45 | CC(O)(P(=O)(O)O)P(=O)(O)O [Etidronate] | 0%
46 | CCc1cccc2c3c([nH]c12)C(CC)(CC(=O)O)OCC3 (stereo not shown) [Etodolac] | 0%
47 | CC(C)(Oc1ccc(Cl)cc1)C(=O)OCCOC(=O)c1cccnc1 [Etofibrate] | 4.59%
48 | CCOC(=O)c1cncn1[C@H](C)c1ccccc1 [Etomidate] | 8.82%
49 | C#C[C@]1(O)CC[C@H]2[C@@H]3CCC4=CC(=O)CC[C@@H]4[C@H]3C(=C)C[C@@]21CC [Etonogestrel] | 0%

Row | Compound | inhibition at 100 µM
50 | COc1cc([C@@H]2c3cc4c(cc3[C@@H](O[C@@H]3O[C@@H]5CO[C@@H](C)O[C@H]5[C@H](O)[C@H]3O)[C@H]3COC(=O)[C@H]23)OCO4)cc(OC)c1O [Etoposide] | 25.5%
51 | Cc1ccc(-c2ncc(Cl)cc2-c2ccc(S(C)(=O)=O)cc2)cn1 [Etoricoxib] | 0%
52 | Cc1cc(C#N)cc(C)c1Oc1nc(Nc2ccc(C#N)cc2)nc(N)c1Br [Etravirine (TMC125)] | 5.29%
53 | CCOC(=O)/C=C(C)/C=C/C=C(C)/C=C/c1c(C)cc(OC)c(C)c1C [Etretinate] | 24.9%
54 | Cc1cc(C)c2c(c1)[C@@H](N(Cc1cc(C(F)(F)F)cc(C(F)(F)F)c1)c1nnn(C)n1)CCCN2C[C@H]1CC[C@H](C(=O)O)CC1 [Evacetrapib (LY2484595)] | 28.7%
55 | CO[C@H]1C[C@@H]2CC[C@@H](C)[C@@](O)(O2)C(=O)C(=O)N2CCCC[C@H]2C(=O)O[C@H]([C@H](C)C[C@@H]2CC[C@@H](OCCO)[C@H](OC)C2)CC(=O)[C@H](C)/C=C(\C)[C@@H](O)[C@@H](OC)C(=O)[C@H](C)C[C@H](C)/C=C/C=C/C=C/1C [Everolimus (RAD001)] | 11.2%
56 | Cn1c(COP(=O)(NCCBr)NCCBr)cnc1[N+](=O)[O-] [Evofosfamide (TH-302)] | 12.7%
57 | C=C1C[C@@H]2[C@H](CC[C@]3(C)C(=O)CC[C@@H]23)[C@@]2(C)C=CC(=O)C=C12 [Exemestane] | 11.1%
58 | O=C1[C@H](CC[C@H](O)c2ccc(F)cc2)[C@@H](c2ccc(O)cc2)N1c1ccc(F)cc1 [Ezetimibe] | 5.79%
59 | CC(=O)OCC(CCn1cnc2cnc(N)nc21)COC(C)=O [Famciclovir] | 0%
60 | NC(N)=Nc1nc(CSCC/C(N)=N/S(N)(=O)=O)cs1 [Famotidine] | 1.86%
61 | C[C@@H](O)[C@H]1C(=O)N2C(C(=O)O)=C([C@H]3CCCO3)S[C@H]12 [Faropenem Sodium] | 0%
62 | O=S(=O)(c1cccc2cnccc12)N1CCCNCC1 [Fasudil (HA-1077) HCl] | 0%
63 | NC(=O)c1nc(F)cnc1O [Favipiravir (T-705)] | 0.111%
64 | Cc1nc(-c2ccc(OCC(C)C)c(C#N)c2)sc1C(=O)O [Febuxostat] | 4.8%
65 | Cc1cnc(Nc2ccc(OCCN3CCCC3)cc2)nc1Nc1cccc(S(=O)(=O)NC(C)(C)C)c1 [Fedratinib (SAR302503, TG101348)] | 17.5%
66 | NC(=O)OCC(COC(N)=O)c1ccccc1 [Felbamate] | 22%
67 | O=C(O)CCC(=O)c1ccc(-c2ccccc2)cc1 [Fenbufen] | 0%
68 | CCCCC(O)c1ccccc1 (stereo not shown) [Fenipentol] | 4.29%
69 | CC(C)OC(=O)C(C)(C)Oc1ccc(C(=O)c2ccc(Cl)cc2)cc1 [Fenofibrate] | 28.9%
70 | CC(C)(Oc1ccc(C(=O)c2ccc(Cl)cc2)cc1)C(=O)O [Fenofibric acid] | 0%
